Data published in patent publication US8574578B2, “Antibodies against PDGFRα to inhibit tumor growth” (ImClone LLC, priority 2006, dated 2013).

How the values were obtained:
[1] = tested on: Akt phosphorylation in PC3-ML cells; assay: Akt phosphorylation in PC3-ML cells (Western blot); assay type: cell-based, human; conditions: 20 μM AG-1296
Description: Bone marrow samples from normal male donors (ages 18-45) were supplied by Cambrex (Poietics™ Donor Program). Samples were centrifuged at 1,500 rpm in order to separate the soluble and cellular phases. The supernatant was filtered using 0.8 μm and 0.22 μm filters in succession. 50 μl of bone marrow aspirate was administered to cells in 1 ml of medium (1:20 final dilution).
For experiments performed in the presence of serum, cells were cultured in DMEM supplemented with 10% FBS and 50 μg/ml gentamycin for 24 hours prior to exposure to bone marrow. For experiments in the absence of serum (starved cells), cells were washed twice with PBS, the growth medium was replaced with serum-free DMEM, and the cells were incubated for 4 hours prior to exposure to bone marrow preparations. When used, AG-1296, a specific inhibitor of PDGF receptors (Rice et al., 1999, Amer. J. Path. 155, 213-21) was added to cultures 30 min. prior to exposure to bone marrowaspirate. IMC-3G3 antibodies were administered as described at pre-treatment times as stated below.

[2] = tested on: LuCaP 35V xenograft; assay: Serum PSA in mice carrying LuCaP 35V xenografts (IMx Total PSA Assay); assay type: in vivo, castrated SCID mice
Description: (§1) All treatments were administered intraperitoneally (ip). Docetaxel was administered once a week. A12 was administered three times a week. […] Animals were weighed twice a week. Blood samples were collected from orbital sinus weekly.

[3] = tested on: LuCaP 23.1 human prostate tumor; assay: Docetaxel with or without A12, LuCaP 23.1 intratibial xenografts, four weeks; assay type: in vivo, SCID mice
Description: LuCaP 23.1 human prostate tumor bits (20 to 30 mm^3) were mechanically digested. 2-5×10^5 viable LuCaP 23.1 cells were injected into the tibiae of 6-8 wk old SCID mice. 21 mice randomized into three groups were used for the study. After tumor injection, serum PSA was monitored weekly. Treatment started when serum PSA level reached 5-10 ng/ml, an indication of tumor growth. Group 1 received control vehicle saline buffer. Group 2 received 20 mg/kg of docetaxel i.p once a week for 4 weeks. Group 3 received 20 mg/kg of docetaxel once a week and 40 mg/kg of A12 i.p. three times a week for 4 weeks. To determine whether the response to treatment was osteoblastic or osteolytic, BMD was measured by Dexa-scan and x-rays of the animals at the end point of all treatments.

[4] = Overall cytotoxicity of coadministration of docetaxel and IMC-A12; assay type: in vivo, SCID mice; conditions: compared to control tumor-bearing animals
Description: as §1
Cytotoxicity of coadministration of docetaxel and IMC-A12 was examined.

[5] = tested on: LuCaP 23.1 prostate cancer cells; assay: IMC-A12 + docetaxel, LuCaP 23.1 tibial bone metastases, six weeks (present-tense example); assay type: in vivo, castrated SCID mice; conditions: weekly PSA, during and after six weeks of treatment
Description: SCID mice are castrated 2 weeks prior to tibial tumor injections. Bone metastases are generated by direct injection of LuCaP 23.1 prostate cancer cells into the tibia of the mice, giving rise to osteoblastic lesions. The xenografts express IGF-IR. Serum PSA levels are measured biweekly to evaluate tumor growth. When serum PSA levels reach 5-10 ng/ml indicating established tumor, animals are randomized into four groups.
In two groups, 40 mg/kg of IMC-A12 are injected i.p. three times a week for six weeks with one group receiving IMC-A12+docetaxel 20 mg/kg i.p once a week for 6 weeks and a second group IMC-A12+docetaxel 10 mg i.p. three times a week for 6 weeks. Control groups receive 10 or 20 mg docetaxel i.p. without IMC-A12.
Animals are monitored with weekly PSA measurements. After termination of treatment, animals continue to be monitored with weekly PSA measurements until tumors in the docetaxel only groups show tumor regrowth. […] Reductions in PSA levels are observed to continue, even after termination of treatment at six weeks.
As indicated above, BMD measurements are made at the time of engraftment and at sacrifice, and radiographs are taken just prior to sacrifice.

[6] = tested on: LuCaP 35V xenograft; assay: TUNEL / propidium staining flow cytometry of tumor cells at time of sacrifice; assay type: in vivo, castrated SCID mice; conditions: percentage of tumors; for Apoptosis (%): four weeks after treatment termination; for G1 arrest (%) / G2 arrest (%) / Normal cycle (%): time of sacrifice
Description: After euthanization, tumors were collected and halved. A portion of the tumors were fixed in 10% neutral buffer formalin (NFB) and embedded in paraffin. Five micron sections were prepared for immunohistochemistry (IHC) staining. The remaining portion of the tumors was separated into single cells mechanically by mincing and filtering through 70 μm nylon sieves.
The combined in vivo effect of docetaxel and A12 treatment on cell cycle and cell survival at the experimental end point was measured by terminal deoxynucleotidyl transferase-mediated nick end labeling (TUNEL) assay and propidium (PI) staining using the Apop-Direct kit (BD BioScience) as previously described. Briefly, 1×10^6 cells from the single-cell suspension were fixed with 10% neutral buffer formalin (NBF) followed by 70% ethanol alcohol at −20° C. for 30 min. After several washes, cells were permeabilized with 0.1% Triton X-100 and incubated with FITC-conjugated dUTP and terminal deoxynucleotidyl transferase enzyme (TdT) at 37° C. for 1 h, followed by an incubation with PI/RNase buffer (100 μg/ml of PI, 50 μg/ml RNase) at room temperature for 60 min. Samples were analyzed by flow cytometry using a BD FACscan. Data were analyzed with CellQuest^PRO software.

[7] = tested on: LuCaP 35V xenograft; assay: LuCaP 35V subcutaneous xenograft tumor growth
Description: Tumor bits (20 to 30 mm^3) of androgen-independent (AI) LuCaP 35V were implanted subcutaneously (s.c.) into 32 six-week-old castrated SCID mice respectively as previously described (4). […] Group 1 animals received docetaxel treatment at a dose of 20 mg/kg. Group 2 animals received docetaxel treatment at a dose of 10 mg/kg. Group 3 animals received combined treatment of 10 mg/kg docetaxel and 40 mg/kg A12. Group 4 animals received combined treatment of 20 mg/kg docetaxel and 40 mg/kg A12. All treatments were administered intraperitoneally (ip). Docetaxel was administered once a week. A12 was administered three times a week. All animals were treated for four weeks and monitored for additional four weeks before euthanization. Tumors were measured twice weekly and tumor volume was estimated by the formula: volume=L×W^2/2. Following our University of Washington IACUC approved animal protocol, some animals were euthanized at an earlier time when tumor reached a volume of 1000 mm^3 or when animal weight loss exceeded 20% of initial body weight. Animals were weighed twice a week.

[8] = target: murine IGF-IR (Mus musculus, UniProt Q60751); assay: Cross-reactivity of A12 with murine IGF-IR; assay type: binding
murine IGF-IR, sequence (Q60751 31-1373): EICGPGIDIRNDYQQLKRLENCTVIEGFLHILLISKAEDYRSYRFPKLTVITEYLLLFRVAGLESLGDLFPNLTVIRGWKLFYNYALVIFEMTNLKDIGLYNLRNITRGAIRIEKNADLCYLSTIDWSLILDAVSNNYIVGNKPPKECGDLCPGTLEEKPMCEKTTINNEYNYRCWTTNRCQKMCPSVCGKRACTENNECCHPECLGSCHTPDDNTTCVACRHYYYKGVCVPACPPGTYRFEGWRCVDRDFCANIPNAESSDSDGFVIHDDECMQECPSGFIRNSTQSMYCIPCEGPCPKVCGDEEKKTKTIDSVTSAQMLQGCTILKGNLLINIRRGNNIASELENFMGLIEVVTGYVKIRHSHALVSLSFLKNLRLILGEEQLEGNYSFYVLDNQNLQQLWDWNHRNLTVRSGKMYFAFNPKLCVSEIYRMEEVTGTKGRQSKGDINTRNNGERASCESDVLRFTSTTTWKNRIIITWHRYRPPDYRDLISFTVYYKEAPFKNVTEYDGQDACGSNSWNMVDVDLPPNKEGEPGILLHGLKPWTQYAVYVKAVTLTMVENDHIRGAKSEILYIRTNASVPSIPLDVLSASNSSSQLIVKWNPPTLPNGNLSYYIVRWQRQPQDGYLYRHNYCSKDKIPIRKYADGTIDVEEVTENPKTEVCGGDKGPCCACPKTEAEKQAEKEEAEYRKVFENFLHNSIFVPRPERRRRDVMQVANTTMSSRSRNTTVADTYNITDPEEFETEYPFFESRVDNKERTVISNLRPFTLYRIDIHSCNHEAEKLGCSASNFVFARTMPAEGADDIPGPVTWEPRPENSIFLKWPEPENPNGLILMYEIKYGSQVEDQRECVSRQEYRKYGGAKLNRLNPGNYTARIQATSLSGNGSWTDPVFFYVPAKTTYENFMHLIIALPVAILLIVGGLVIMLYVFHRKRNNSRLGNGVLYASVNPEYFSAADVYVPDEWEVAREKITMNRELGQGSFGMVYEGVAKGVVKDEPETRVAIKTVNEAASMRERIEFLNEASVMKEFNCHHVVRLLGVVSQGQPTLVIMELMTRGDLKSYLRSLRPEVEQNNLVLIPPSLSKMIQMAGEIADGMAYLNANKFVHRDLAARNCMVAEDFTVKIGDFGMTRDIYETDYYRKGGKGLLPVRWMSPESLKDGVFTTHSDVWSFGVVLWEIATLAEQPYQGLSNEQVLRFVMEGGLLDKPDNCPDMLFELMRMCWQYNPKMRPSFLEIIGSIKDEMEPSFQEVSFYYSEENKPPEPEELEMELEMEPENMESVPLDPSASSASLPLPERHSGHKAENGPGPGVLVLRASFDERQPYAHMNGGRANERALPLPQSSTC

[9] = Post-treatment serum levels of A12; assay type: in vivo, SCID mice
Description: Serum levels of A12 were measured in animals that had received docetaxel combined with A12.

[10] = tested on: LuCaP 23.1 xenograft; assay: IMC-A12 treatment of LuCaP 23.1 intratibial xenografts (PSA, BMD, radiographs); assay type: in vivo, castrated SCID mice
Description: Anti-IGF-IR antibody therapy for bone metastases. The effectiveness of treatment with anti-IGF-IR antibodies on metastatic growth of prostate cancer cells in bone was evaluated using prostate cancer cells injected directly into the tibia of SCID mice. By this method, metastatic tumors are established directly without reliance on chemotaxis dependent invasion from the circulation. A variety of tumor lines are available for establishing bone metastases. These include PC-3, LuCaP35, and LnCaP cells which produce osteolytic lesions and LuCaP 23.1 cells which produce osterblastic lesions.
To evaluate the effectiveness of treatment with IMC-A12, LuCaP 23.1 xenograft tumors were engrafted in SCID mice, and serum PSA levels were measured biweekly to evaluate tumor growth. All animals were castrated two weeks prior to tibial tumor cell engraftment. Administration of IMC-A12 to test mice was begun when serum PSA levels reached 5-10 ng/ml (indicating established tumors). 40 mg/kg IMC-A12 was injected i.p. three times a week for six weeks.
Bone mineral density (BMD) of the tumored tibiae and the contralateral tibiae without tumor was measured by Dual X-ray absorptiometry (PIXImus Lunar densitometer) performed on a 2.5 mm×2.5 mm area at the tumor cell injection site, or the corresponding site of the contralateral tibia at the time of engraftment. Biweekly assessment of lesions was made by serum PSA measurements. All animals were sacrificed when the bone lesions in the control group had recurred after castration based on serum PSA levels (LuCaP 35 >60 ng/ml, ng/ml, LuCaP 23.1 >500 ng/ml), radiographical appearance of the bone lesions or when animals became compromised. One hour prior to sacrifice animals were injected with BrdU to monitor tumor cell proliferation. Radiographs were taken prior to sacrifice (FaxitronX-ray MX-20), and BMD of both tibiae were measured at the time of sacrifice.

[11] = 40 mg/kg IMC-A12 i.p. three times a week for six weeks, at sacrifice

## COc1cc2ncc(-c3ccccc3)nc2cc1OC [AG-1296, reference compound]
[1]
  inhibition of bone marrow aspirate induced Akt activation: more than 40%
[1]; 30 ng/ml PDGF-BB
  inhibition of PDGF-BB induced Akt activation: completely inhibits

## CC(=O)O[C@@]12CO[C@@H]1C[C@H](O)[C@@]1(C)C(=O)[C@H](O)C3=C(C)[C@@H](OC(=O)[C@H](O)[C@@H](NC(=O)OC(C)(C)C)c4ccccc4)C[C@@](O)([C@@H](OC(=O)c4ccccc4)[C@H]21)C3(C)C [docetaxel]
[2]; A12 + docetaxel, or 20 mg/kg docetaxel alone
  serum PSA level during the four-week treatment: no significant change
[2]; mouse, in vivo
  serum PSA level after treatment termination: increased
[3]; docetaxel 20 mg/kg once a week, A12 40 mg/kg three times a week, 4 weeks
  LuCaP 23.1 tumor growth as reflected by serum PSA levels during treatment: significantly inhibited
[3]; docetaxel 20 mg/kg, A12 40 mg/kg
  serum PSA after treatment cessation: began to increase
[3]; week five, docetaxel 20 mg/kg, A12 40 mg/kg
  average bone density (mean±SEM): 0.09±0.02
[4]
  daily activity or behavior: no abnormal daily activity or behavior changes
[5]
  PSA levels: rise
[6]; docetaxel 10 mg/kg groups
  Apoptosis (%): No apoptosis
  G1 arrest (%): 0%
  G2 arrest (%): 12%
  Normal cycle (%): 88%
[6]; docetaxel 10 mg/kg groups, listed as Doc (10)
  Apoptosis (%): 0%
[6]; docetaxel 20 mg/kg groups
  Apoptosis (%): No apoptosis
  G1 arrest (%): 0%
  G2 arrest (%): 0%
  Normal cycle (%): 100%
[6]; docetaxel 20 mg/kg groups, listed as Doc (20)
  Apoptosis (%): 0%
[7]; docetaxel 20 mg/kg alone
  rate of tumor volume increase in the four weeks following treatment termination: 27.0±16.1 mm^3/week
[7]; docetaxel 20 mg/kg with or without combined A12
  tumor volume during the four-week treatment period: tumor volume did not increase
[7]; four-week ip treatment, A12 alone 40 μg/kg as printed, docetaxel 10 mg/kg, docetaxel 10 mg/kg + A12
  tumor growth rate during treatment: 29.6±6.1 mm^3/week

## IMC-A12: human IgG1 anti-IGF-IR antibody; heavy chain variable domain SEQ ID NO:41, light chain variable domain SEQ ID NO:51
[8]
  cross-reactivity with murine IGF-IR: greater than 95%
[9]; four weeks after treatment cessation
  serum A12 level: very low level
[9]; two weeks after treatment cessation, animals received docetaxel combined with A12
  decline of serum A12 levels: 100 fold
[10]; 40 mg/kg IMC-A12
  loss of bone density (osteoporosis), non-tumored legs: did not cause a loss of bone density
[10]; [11]
  Bone mineral density (BMD), Non-tumored leg, Mean: 0.045
  Bone mineral density (BMD), Tumored Leg, Mean: significantly reduced
[10]; 40 mg/kg IMC-A12 i.p. three times a week for six weeks, at sacrifice, listed as A12
  Bone mineral density (BMD), Tumored Leg, Mean: 0.060
[10]; 40 mg/kg IMC-A12 vs untreated
  Serum PSA levels: significantly lower
  tumor progression on radiographs: significantly reduced or prevented
